Values after ≈ are worked out from the molar mass of the structure shown. “Also recorded” adds a separate entry of the source. Where two headings read alike, the source gives them in different places. Where a SMILES comes first, the peptide text is derived from it. [ ]: non-standard residue; d: D form. The star is where a group is joined. Orn(α-tetramethylguanidino) = CN(C)C(=N[C@@H](CCCN)C(=O)*)N(C)C; Orn = NCCC[C@H](N)C(=O)O
How the values were obtained:
E. coli ATCC 25922 [1] = conditions: cited from earlier work
Text: (§1) Antimicrobial peptides (AMPs) are considered as promising alternatives to common antibiotics that threateningly lose their therapeutic potentials against multidrug-resistant pathogens (Fox, [2013]; Wang et al., [2015]). In contrast to approved therapeutic peptide hormones, antimicrobial peptides have to be administered at much higher doses, which may amplify general drawbacks of peptide therapeutics. For example, the diabetes peptide drugs exenatide and pramlintide are given at daily doses of 20 μg (Byetta®; ~0.5 μg/kg) and 120 μg (Symlin®; ~1.5 μg/kg; Heine et al., [2005]; Hay et al., [2015]) ... || Apidaecin analogs Api88 and Api137 are similarly active against Gram-negative bacteria with a tendency of higher activity of Api88 against K. pneumoniae (Czihal et al., [2012]; Berthold et al., [2013]). However, Api88 carries a C-terminal amide that is responsible for its very fast proteolytic cleavage in serum, the supernatant obtained after complete coagulation and centrifugation of blood. The in vitro serum stability assay, which is an important in vitro criterion to select therapeutic peptides for systemic applications, yielded very short half-life times of 5 min for Api88, which indicate ...

in vitro = in vitro ADME, CD-1 mice; conditions: female, CD-1, mouse, cerebrospinal or other body fluid
Protocol: Peritoneal lavage (1.5–2 mL) were collected from three euthanized female CD-1 mice (14 weeks, 32–33 g) after injecting sterile PBS intraperitoneal (4 mL). Peptides were incubated with aliquots (95 μL) of fresh lavage (75 μg/mL, 37°C, 750 rpm). After 0, 30, and 60 min trichloroacetic acid (25 μL, 15% w/v) was added to the samples to precipitate proteins, incubated on ice (10 min), and centrifuged (5 min, 12.400 × g). Supernatants were neutralized with sodium hydroxide (1 mol/L) and analyzed by RP-HPLC using a Poroshell 120 SB-C18-column (2.1 mm internal diameter, 100 mm length, 2.7 μm particle size, 12 nm pore size, Agilent Technologies Inc., Santa Clara, CA, USA) at 60°C and an aqueous acetonitrile gradient containing trifluoroacetic acid (0.1%, v/v). Absorbance was recorded at a wavelength of 214 nm.

70S ribosomes = conditions: fluorescence polarization assay; ref Krizsan et al., 2014; cited from earlier work
Text: Antimicrobial peptides (AMPs) are considered as promising alternatives to common antibiotics that threateningly lose their therapeutic potentials against multidrug-resistant pathogens (Fox, [2013]; Wang et al., [2015]). In contrast to approved therapeutic peptide hormones, antimicrobial peptides have to be administered at much higher doses, which may amplify general drawbacks of peptide therapeutics. For example, the diabetes peptide drugs exenatide and pramlintide are given at daily doses of 20 μg (Byetta®; ~0.5 μg/kg) and 120 μg (Symlin®; ~1.5 μg/kg; Heine et al., [2005]; Hay et al., [2015]) ...

[2] = mouse, in vivo, ip; cited from earlier work
Text: Apidaecin analogs Api88 and Api137 are similarly active against Gram-negative bacteria with a tendency of higher activity of Api88 against K. pneumoniae (Czihal et al., [2012]; Berthold et al., [2013]). However, Api88 carries a C-terminal amide that is responsible for its very fast proteolytic cleavage in serum, the supernatant obtained after complete coagulation and centrifugation of blood. The in vitro serum stability assay, which is an important in vitro criterion to select therapeutic peptides for systemic applications, yielded very short half-life times of 5 min for Api88, which indicate ...

[3] = mouse, in vivo, ip, 5 mg/kg; cited from earlier work
Text: The recovery rates obtained from the spiked samples, were used to calculate the total amounts of intact peptides in blood, liver, and kidneys after intraperitoneal administration (Figures 6B–E, Tables S10, S11). The relative recovery in the studied organs and blood was only around 1.5 ± 0.6–2.1 ± 0.7% of the injected peptide amounts. Considering the mean weight of 29 g per mouse in this study and the weights of blood, liver, two kidneys, and brain with 2.2, 1.5, 0.5, and 0.5 g, respectively (~16% of the total weight), around 12% of the injected peptide quantities were detected in the samples c ...

E. coli ATCC 25922 [4] = conditions: same infection model; ref Schmidt et al., 2016; cited from earlier work
Text: as §1, with “[…] Api137 appeared more efficient in this septicemia model due to” for “For example,”, “better scores obtained” for “diabetes peptide drugs exenatide and pramlintide are given”, “at” for “at daily doses of 20 μg (Byetta®; ~0.5 μg/kg) and 120 μg (Symlin®; ~1.5 μg/kg; Heine et al., [2005]; Hay et al., [2015])”

[5] = cited from earlier work
Text: Proline-rich antimicrobial peptides (PrAMPs) represent promising alternative therapeutic options for the treatment of multidrug-resistant bacterial infections. PrAMPs are predominantly active against Gram-negative bacteria by inhibiting protein expression via at least two different modes of action, i.e., blocking the ribosomal exit tunnel of 70S ribosomes (oncocin-type binding) or inhibiting the assembly of the 50S ribosomal subunit (apidaecin-type binding). The in vivo efficacy and favorable biodistribution of oncocins confirmed the therapeutic potential of short PrAMPs for the first time, wh ... || Antimicrobial peptides (AMPs) are considered as promising alternatives to common antibiotics that threateningly lose their therapeutic potentials against multidrug-resistant pathogens (Fox, [2013]; Wang et al., [2015]). In contrast to approved therapeutic peptide hormones, antimicrobial peptides have to be administered at much higher doses, which may amplify general drawbacks of peptide therapeutics. […]

[6] = Lithium-heparin plasma after intraperitoneal administration; conditions: NMRI mice, up to 90 min
mouse serum in vitro = conditions: cited from earlier work
[7] = plasma after intravenous administration; conditions: CD-1 mice, up to 60 min
[8] = fresh peritoneal lavage (PBS injected intraperitoneal), ex vivo; conditions: CD-1 mice, 37°C, up to 60 min
[9] = liver homogenates after intraperitoneal administration; conditions: NMRI mice, up to 90 min
[10] = metabolites, in vitro, no method in this paper, reference not given
[11] = E. coli ATCC 25922, ref Knappe et al., 2016c

Compound | MIC (E. coli ATCC 25922 [1]; [10]) | maximum plasma levels relative to Api88 and Api137 | remaining at 1 h, 75 μg/mL (in vitro) | Kd (70S ribosomes) | Maximum plasma level reported for oncocins, compared with lower dose groups [2] | MIC (E. coli ATCC 25922 [1]; [11]) | Recovery rate of injected peptide [3] | Dose rescuing all animals (E. coli ATCC 25922 [4]) | fragment found [6] | fragment found (mouse serum in vitro) | fragment found [8] | fragment found [9] | further results
CC[C@H](C)[C@H](NC(=O)[C@H](Cc1ccc(O)cc1)NC(=O)[C@@H](NC(=O)[C@@H]1CCCN1C(=O)[C@H](CCCNC(=N)N)NC(=O)[C@H](CC(N)=O)NC(=O)[C@H](CC(N)=O)NC(=O)[C@H](CCCN)N=C(N(C)C)N(C)C)C(C)C)C(=O)N1CCC[C@H]1C(=O)N[C@@H](CCCNC(=N)N)C(=O)N1CCC[C@H]1C(=O)N[C@@H](CCCNC(=N)N)C(=O)N1CCC[C@H]1C(=O)N1CCC[C@H]1C(=O)N[C@@H](Cc1c[nH]cn1)C(=O)N1CCC[C@H]1C(=O)O [Api1-16] ({Orn(α-tetramethylguanidino)}-NNRPVYIPRPRPPHP-OH) | > 128 µg/mL |  |  |  |  |  |  |  |  |  |  |  | 
CC[C@H](C)[C@H](NC(=O)[C@H](Cc1ccc(O)cc1)NC(=O)[C@@H](NC(=O)[C@@H]1CCCN1C(=O)[C@H](CCCNC(=N)N)NC(=O)[C@H](CC(N)=O)NC(=O)[C@H](CC(N)=O)NC(=O)[C@H](CCCN)N=C(N(C)C)N(C)C)C(C)C)C(=O)N1CCC[C@H]1C(=O)N[C@@H](CCCNC(=N)N)C(=O)N1CCC[C@H]1C(=O)N[C@@H](CCCNC(=N)N)C(=O)N1CCC[C@H]1C(=O)N1CCC[C@H]1C(=O)N[C@@H](Cc1c[nH]cn1)C(=O)N1CCC[C@H]1C(=O)N[C@@H](CCCNC(=N)N)C(=O)O [Api1-17] ({Orn(α-tetramethylguanidino)}-NNRPVYIPRPRPPHPR-OH) | 64 µg/mL |  |  |  |  |  |  |  |  |  |  |  | 
CC[C@H](C)[C@H](NC(=O)[C@H](CCCN)NC(=O)[C@H](CCCNC(=N)N)NC(=O)[C@@H]1CCCN1C(=O)[C@@H]1CCCN1C(=O)[C@H](CCCNC(=N)N)NC(=O)[C@@H]1CCCN1C(=O)[C@H](CCCNC(=N)N)NC(=O)[C@@H]1CCCN1C(=O)[C@H](CC(C)C)NC(=O)[C@H](Cc1ccc(O)cc1)NC(=O)[C@@H]1CCCN1C(=O)[C@@H]1CCCN1C(=O)[C@H](CCCCN)NC(=O)[C@H](CC(=O)O)NC(=O)[C@@H](N)C(C)C)C(=O)N[C@@H](Cc1ccc(O)cc1)C(=O)N[C@@H](CC(N)=O)C(=O)N[C@@H](CCCN)C(N)=O [Onc72, reference compound] (H-VDKPPYLPRPRPPR[Orn]IYN[Orn]-NH2; N-terminus and C-terminus assumed) |  | < 10 fold | > 89% | 450 nM | 6 µg/mL | 16 µg/mL (≈ 6.94 µM) | 47% | 5 mg/kg |  |  |  |  | Plasma level reported for oncocin, compared with high dose groups [2]: 18000 ng/mL
CC[C@H](C)[C@H](NC(=O)[C@@H](CCCNC(=N)N)NC(=O)[C@H](CCCNC(=N)N)NC(=O)[C@@H]1CCCN1C(=O)[C@@H]1CCCN1C(=O)[C@H](CCCNC(=N)N)NC(=O)[C@@H]1CCCN1C(=O)[C@H](CCCNC(=N)N)NC(=O)[C@@H]1CCCN1C(=O)[C@H](CC(C)C)NC(=O)[C@H](Cc1ccc(O)cc1)NC(=O)[C@@H]1CCCN1C(=O)[C@@H]1CCCN1C(=O)[C@H](CCCCN)NC(=O)[C@H](CC(=O)O)NC(=O)[C@@H](N)C(C)C)C(=O)N[C@@H](Cc1ccc(O)cc1)C(=O)N[C@@H](CC(N)=O)C(=O)N[C@H](CCCNC(=N)N)C(N)=O [Onc112, reference compound] (H-VDKPPYLPRPRPPR[dR]IYN[dR]-NH2; N-terminus and C-terminus assumed) |  | < 10 fold | > 89% | 90 nM | 8 µg/mL | 4 µg/mL (≈ 1.67 µM) | 32% | 2.5 mg/kg |  |  |  |  | Serum half-life time [5]: exceeded 8 h
gu-ONNRPVYIPRPRPPHPRL-NH2 |  |  |  |  |  |  |  |  | Api1-16, major, 10 min; also recorded: Api2-16; also recorded: Api7-18; also recorded: Api3-18; also recorded: Api7-12; also recorded: Api1-6; also recorded: Api1-17, major, 10 min | Api1-17, major; also recorded: Api1-16, major | Api1-17, major, 30 min | Api1-17, major; also recorded: Api1-16, major | fragment found [7]: Api1-17, major, 5 min; also recorded: Api1-16, major, 5 min
gu-ONNRPVYIPRPRPPHPRL-OH |  |  |  |  |  |  |  |  | Api1-17, major, 10 min; also recorded: Api1-16, major, 10 min; also recorded: Api7-12, minor; also recorded: Api2-16, minor; also recorded: Api2-18, minor | Api1-17, major; also recorded: Api1-16, major | Api1-17, major, 30 min | Api1-17, major; also recorded: Api1-16, major | 

— publication PMC5357639 (Frontiers in Chemistry, 2017)
